# Reference: ChEMBL document CHEMBL1201862, “PubChem BioAssay data set” (2004)
#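 Following 48 hours of exposure in 96-well plates, responses at five concentrations were used to interpolate endpoints linearly. Here, GI50 denotes the concentration required for 50% inhibition of growth.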 The source made the active and inactive calls. Rule as the data show it: active = GI50 up to about 1.1 µM and inactive = higher.
# Key:
# Assay in all cases: NCI tumour cell line growth inhibition, 48 h
# OVCAR-3 = tested on: OVCAR-3
# OVCAR-5 = tested on: OVCAR-5
# SF-539 = tested on: SF-539
# NCI-H460 = tested on: NCI-H460
# HL-60 = tested on: HL-60
# COLO 205 = tested on: COLO 205
# LOX IMVI = tested on: LOX IMVI
# SW-620 = tested on: SW-620
# UO-31 = tested on: UO-31
# A549 = tested on: A549
# SF-295 = tested on: SF-295
# NCI-H226 = tested on: NCI-H226
# T47D = tested on: T47D
# SNB-75 = tested on: SNB-75
# HCT-116 = tested on: HCT-116
# U-251 = tested on: U-251
# MCF7 = tested on: MCF7
# SK-MEL-28 = tested on: SK-MEL-28
# MOLT-4 = tested on: MOLT-4
# CCRF-CEM = tested on: CCRF-CEM
# RPMI-8226 = tested on: RPMI-8226
# SN12C = tested on: SN12C
# NCI-H23 = tested on: NCI-H23
# SR = tested on: SR
# DU-145 = tested on: DU-145
# NCI/ADR-RES = tested on: NCI/ADR-RES
# HCT-15 = tested on: HCT-15
# K562 = tested on: K562
# PC-3 = tested on: PC-3
# HT-29 = tested on: HT-29
# SK-MEL-2 = tested on: SK-MEL-2
# Hs-578T = tested on: Hs-578T
# 786-0 = tested on: 786-0
# UACC-257 = tested on: UACC-257
# SNB-19 = tested on: SNB-19
# TK-10 = tested on: TK-10
# OVCAR-4 = tested on: OVCAR-4
# SF-268 = tested on: SF-268
# MDA-MB-231 = tested on: MDA-MB-231
# BT-549 = tested on: BT-549
# ACHN = tested on: ACHN
# HOP-62 = tested on: HOP-62
# NCI-H522 = tested on: NCI-H522
# M14 = tested on: M14
# EKVX = tested on: EKVX
# KM12 = tested on: KM12
# MDA-MB-435 = tested on: MDA-MB-435
# HCC 2998 = tested on: HCC 2998
# A498 = tested on: A498
# Malme-3M = tested on: Malme-3M
# OVCAR-8 = tested on: OVCAR-8
# CAKI-1 = tested on: CAKI-1
# RXF 393 = tested on: RXF 393
# IGROV-1 = tested on: IGROV-1
# UACC-62 = tested on: UACC-62
# SK-OV-3 = tested on: SK-OV-3
# HOP-92 = tested on: HOP-92
# SK-MEL-5 = tested on: SK-MEL-5
smiles,measurement,setting,value
Cc1nc(N)c(N2CCN(S(N)(=O)=O)CC2)c(O)n1,GI50,OVCAR-3,> 100 µM (inactive)
same,GI50,OVCAR-5,> 100 µM (inactive)
same,GI50,SF-539,> 100 µM (inactive)
same,GI50,NCI-H460,> 100 µM (inactive)
same,GI50,HL-60,> 100 µM (inactive)
same,GI50,COLO 205,> 100 µM (inactive)
same,GI50,LOX IMVI,> 100 µM (inactive)
same,GI50,SW-620,> 100 µM (inactive)
same,GI50,UO-31,> 100 µM (inactive)
same,GI50,A549,> 100 µM (inactive)
same,GI50,SF-295,> 100 µM (inactive)
same,GI50,NCI-H226,> 100 µM (inactive)
same,GI50,T47D,> 100 µM (inactive)
same,GI50,SNB-75,> 100 µM (inactive)
same,GI50,HCT-116,> 100 µM (inactive)
same,GI50,U-251,> 100 µM (inactive)
same,GI50,MCF7,> 100 µM (inactive)
same,GI50,SK-MEL-28,> 100 µM (inactive)
same,GI50,MOLT-4,> 100 µM (inactive)
same,GI50,CCRF-CEM,> 100 µM (inactive)
same,GI50,RPMI-8226,> 100 µM (inactive)
same,GI50,SN12C,> 100 µM (inactive)
same,GI50,NCI-H23,> 100 µM (inactive)
same,GI50,SR,> 100 µM (inactive)
same,GI50,DU-145,> 100 µM (inactive)
same,GI50,NCI/ADR-RES,> 100 µM (inactive)
same,GI50,HCT-15,> 100 µM
same,GI50,K562,> 100 µM (inactive)
same,GI50,PC-3,> 100 µM (inactive)
same,GI50,HT-29,> 100 µM (inactive)
same,GI50,SK-MEL-2,> 100 µM (inactive)
same,GI50,Hs-578T,> 100 µM (inactive)
same,GI50,786-0,> 100 µM (inactive)
same,GI50,UACC-257,> 100 µM (inactive)
same,GI50,SNB-19,> 100 µM (inactive)
same,GI50,TK-10,> 100 µM (inactive)
same,GI50,OVCAR-4,> 100 µM (inactive)
same,GI50,SF-268,> 100 µM (inactive)
same,GI50,MDA-MB-231,> 100 µM (inactive)
same,GI50,BT-549,> 100 µM (inactive)
same,GI50,ACHN,> 100 µM (inactive)
same,GI50,HOP-62,> 100 µM (inactive)
same,GI50,NCI-H522,> 100 µM (inactive)
same,GI50,M14,> 100 µM (inactive)
same,GI50,EKVX,> 100 µM (inactive)
same,GI50,KM12,> 100 µM (inactive)
same,GI50,MDA-MB-435,> 100 µM (inactive)
same,GI50,HCC 2998,> 100 µM (inactive)
same,GI50,A498,> 100 µM (inactive)
same,GI50,Malme-3M,> 100 µM (inactive)
same,GI50,OVCAR-8,> 100 µM (inactive)
COc1ccc(Cc2coc3ccccc3c2=O)cc1OC,GI50,OVCAR-3,78 µM (inactive)
same,GI50,CAKI-1,11.6 µM (inactive)
same,GI50,OVCAR-5,> 100 µM (inactive)
same,GI50,SF-539,42.8 µM (inactive)
same,GI50,RXF 393,52.4 µM (inactive)
same,GI50,NCI-H460,68.1 µM (inactive)
same,GI50,HL-60,86.5 µM (inactive)
same,GI50,COLO 205,> 100 µM (inactive)
same,GI50,LOX IMVI,49.9 µM (inactive)
same,GI50,SW-620,> 100 µM (inactive)
same,GI50,UO-31,38.5 µM (inactive)
same,GI50,A549,> 100 µM (inactive)
same,GI50,SF-295,47.2 µM (inactive)
same,GI50,NCI-H226,94 µM (inactive)
same,GI50,T47D,33.2 µM (inactive)
same,GI50,SNB-75,> 100 µM (inactive)
same,GI50,HCT-116,45.7 µM (inactive)
same,GI50,U-251,72.1 µM (inactive)
same,GI50,IGROV-1,> 100 µM (inactive)
same,GI50,MCF7,46.2 µM (inactive)
same,GI50,SK-MEL-28,> 100 µM (inactive)
same,GI50,MOLT-4,49.3 µM (inactive)
same,GI50,CCRF-CEM,> 100 µM (inactive)
same,GI50,RPMI-8226,33.3 µM (inactive)
same,GI50,SN12C,> 100 µM (inactive)
same,GI50,NCI-H23,28.3 µM (inactive)
same,GI50,SR,61.1 µM (inactive)
same,GI50,DU-145,> 100 µM (inactive)
same,GI50,NCI/ADR-RES,36.1 µM (inactive)
same,GI50,HCT-15,31.8 µM
same,GI50,K562,72.6 µM (inactive)
same,GI50,PC-3,93.5 µM (inactive)
same,GI50,HT-29,> 100 µM (inactive)
same,GI50,SK-MEL-2,> 100 µM (inactive)
same,GI50,Hs-578T,56.6 µM (inactive)
same,GI50,786-0,> 100 µM (inactive)
same,GI50,UACC-257,59.2 µM (inactive)
same,GI50,SNB-19,> 100 µM (inactive)
same,GI50,UACC-62,> 100 µM (inactive)
same,GI50,TK-10,> 100 µM (inactive)
same,GI50,OVCAR-4,28.4 µM (inactive)
same,GI50,SF-268,> 100 µM (inactive)
same,GI50,MDA-MB-231,99.1 µM (inactive)
same,GI50,BT-549,38 µM (inactive)
same,GI50,ACHN,72.4 µM (inactive)
same,GI50,HOP-62,56.1 µM (inactive)
same,GI50,SK-OV-3,> 100 µM (inactive)
same,GI50,HOP-92,> 100 µM (inactive)
same,GI50,SK-MEL-5,21.3 µM (inactive)
same,GI50,NCI-H522,43.5 µM (inactive)
same,GI50,M14,53.8 µM (inactive)
same,GI50,EKVX,40.6 µM (inactive)
same,GI50,MDA-MB-435,79.4 µM (inactive)
same,GI50,Malme-3M,> 100 µM (inactive)
same,GI50,OVCAR-8,> 100 µM (inactive)
